Data reported in ChEMBL document CHEMBL2150945, “Synthesis and biological evaluation of novel piperazine derivatives of flavone as potent anti-inflammatory and antimicrobial agent” (2012).
Converted amounts (≈) assume the structure as drawn.

What was measured:
Fusarium solani [1] = experiment: Antifungal activity against Fusarium solani MTCC 350 after 2 to 3 days by modified agar well diffusion method; assay type: functional
Aspergillus niger [2] = experiment: Antifungal activity against Aspergillus niger MTCC 281 after 2 to 3 days by modified agar well diffusion method; assay type: functional
Aspergillus flavus [3] = experiment: Antifungal activity against Aspergillus flavus MTCC 277 after 2 to 3 days by modified agar well diffusion method; assay type: functional
Candida albicans [4] = experiment: Antifungal activity against Candida albicans MTCC 227 after 2 to 3 days by modified agar well diffusion method; assay type: functional
THP-1 [5] = experiment: Antiinflammatory activity in human PMA-activated THP1 cells assessed as inhibition of LPS-induced TNFalpha production at 10 uM incubated for 30 mins prior to LPS-challenge measured after 24 hrs by ELISA relative to control; assay type: functional
Escherichia coli [6] = experiment: Antibacterial activity against Escherichia coli MTCC 443 after 24 hrs by modified agar well diffusion method; assay type: functional; settings: MTCC 443, 24 h
Bacillus subtilis [7] = experiment: Antibacterial activity against Bacillus subtilis MTCC 441 after 24 hrs by modified agar well diffusion method; assay type: functional; settings: MTCC 441, 24 h
Staphylococcus aureus [8] = experiment: Antibacterial activity against Staphylococcus aureus MTCC 96 after 24 hrs by modified agar well diffusion method; assay type: functional; settings: MTCC 96, 24 h
THP-1 [9] = experiment: Antiinflammatory activity in human PMA-activated THP1 cells assessed as inhibition of LPS-induced IL6 production at 10 uM incubated for 30 mins prior to LPS-challenge measured after 24 hrs by ELISA relative to control; assay type: functional
Salmonella typhimurium [10] = experiment: Antibacterial activity against Salmonella typhimurium MTCC 98 after 24 hrs by modified agar well diffusion method; assay type: functional, Salmonella enterica subsp. enterica serovar Typhimurium; settings: Salmonella enterica, MTCC 98, 24 h
Escherichia coli [11] = experiment: Ratio of ciprofloxacin MIC to compound MIC for Escherichia coli MTCC 443; assay type: functional
Bacillus subtilis [12] = experiment: Ratio of ciprofloxacin MIC to compound MIC for Bacillus subtilis MTCC 441; assay type: functional
Staphylococcus aureus [13] = experiment: Ratio of ciprofloxacin MIC to compound MIC for Staphylococcus aureus MTCC 96; assay type: functional
Salmonella typhimurium [14] = experiment: Ratio of ciprofloxacin MIC to compound MIC for Salmonella typhimurium MTCC 98; assay type: functional, Salmonella enterica subsp. enterica serovar Typhimurium
Candida albicans [15] = experiment: Ratio of miconazole MIC to compound MIC for Candida albicans MTCC 227; assay type: functional
Aspergillus niger [16] = experiment: Ratio of miconazole MIC to compound MIC for Aspergillus niger MTCC 281; assay type: functional
Fusarium solani [17] = experiment: Ratio of miconazole MIC to compound MIC for Fusarium solani MTCC 350; assay type: functional
Aspergillus flavus [18] = experiment: Ratio of miconazole MIC to compound MIC for Aspergillus flavus MTCC 277; assay type: functional
THP-1 [19] = experiment: Antiinflammatory activity in human PMA-activated THP1 cells assessed as inhibition of LPS-induced IL6 production at 1 uM incubated for 30 mins prior to LPS-challenge measured after 24 hrs by ELISA relative to control; assay type: functional
THP-1 [20] = experiment: Antiinflammatory activity in human PMA-activated THP1 cells assessed as inhibition of LPS-induced TNFalpha production at 1 uM incubated for 30 mins prior to LPS-challenge measured after 24 hrs by ELISA relative to control; assay type: functional

Structure (SMILES) | MIC (Fusarium solani [1]) [µg/mL] | MIC (Aspergillus niger [2]) [µg/mL] | MIC (Aspergillus flavus [3]) [µg/mL] | MIC (Candida albicans [4]) [µg/mL] | inhibition at 10 µM (THP-1 [5]) [%] | MIC (Escherichia coli [6]) [µg/mL] | MIC (Bacillus subtilis [7]) [µg/mL] | MIC (Staphylococcus aureus [8]) [µg/mL] | inhibition at 10 µM (THP-1 [9]) [%] | MIC (Salmonella typhimurium [10]) [µg/mL] | Ratio (Escherichia coli [11]) | Ratio (Bacillus subtilis [12]) | Ratio (Staphylococcus aureus [13]) | Ratio (Salmonella typhimurium [14]) | Ratio (Candida albicans [15]) | Ratio (Aspergillus niger [16]) | Ratio (Fusarium solani [17]) | Ratio (Aspergillus flavus [18]) | inhibition at 1 µM (THP-1 [19]) [%] | inhibition at 1 µM (THP-1 [20]) [%]
Clc1ccc(COC(Cn2ccnc2)c2ccc(Cl)cc2Cl)c(Cl)c1 (stereo unspecified) [MICONAZOLE] | 15 (≈ 36 µM) | 20 (≈ 48.1 µM) | 20 (≈ 48.1 µM) | 25 (≈ 60.1 µM) | – | – | – | – | – | – | – | – | – | – | – | – | – | – | – | –
COc1cc(OC)c2c(=O)cc(CN3CCN(c4ccccc4)CC3)oc2c1 | 95 (≈ 250 µM) | 90 (≈ 237 µM) | 85 (≈ 223 µM) | 80 (≈ 210 µM) | 45 | 90 (≈ 237 µM) | 90 (≈ 237 µM) | 90 (≈ 237 µM) | 50 | 90 (≈ 237 µM) | – | – | – | – | – | – | – | – | – | –
COc1ccc2oc(N3CCN(c4ncccn4)CC3)cc(=O)c2c1 | 95 (≈ 281 µM) | 70 (≈ 207 µM) | 85 (≈ 251 µM) | 85 (≈ 251 µM) | 82 | 80 (≈ 236 µM) | 65 (≈ 192 µM) | 80 (≈ 236 µM) | 87 | 80 (≈ 236 µM) | – | – | – | – | – | – | – | – | – | –
COc1cc(OC)c2c(=O)cc(CN3CCN(c4ccccn4)CC3)oc2c1 | 90 (≈ 236 µM) | 95 (≈ 249 µM) | 95 (≈ 249 µM) | 85 (≈ 223 µM) | 65 | – | 85 (≈ 223 µM) | – | 70 | – | – | – | – | – | – | – | – | – | – | –
COc1ccc2oc(NCCN3CCCC3)cc(=O)c2c1 | 10 (≈ 34.7 µM) | 10 (≈ 34.7 µM) | 15 (≈ 52 µM) | 10 (≈ 34.7 µM) | 5 | 15 (≈ 52 µM) | 10 (≈ 34.7 µM) | 20 (≈ 69.4 µM) | 20 | 10 (≈ 34.7 µM) | 2 | 2 | 2 | 2 | 2 | 2 | 2 | 2 | – | –
CCN1CCN(Cc2cc(=O)c3c(OC)cc(OC)cc3o2)CC1 | 45 (≈ 135 µM) | 35 (≈ 105 µM) | 60 (≈ 181 µM) | 55 (≈ 165 µM) | 20 | 70 (≈ 211 µM) | 65 (≈ 196 µM) | 75 (≈ 226 µM) | 30 | 70 (≈ 211 µM) | – | – | – | – | – | – | – | – | – | –
COc1cc(OC)c2c(=O)cc(CN3CCOCC3)oc2c1 | 85 (≈ 278 µM) | 80 (≈ 262 µM) | 90 (≈ 295 µM) | 85 (≈ 278 µM) | 85 | – | 90 (≈ 295 µM) | – | 91 | – | – | – | – | – | – | – | – | – | – | –
COc1ccc(N2CCN(c3cc(=O)c4cc(OC)ccc4o3)CC2)cc1 | 85 (≈ 232 µM) | 75 (≈ 205 µM) | 90 (≈ 246 µM) | 95 (≈ 259 µM) | 79 | 75 (≈ 205 µM) | 45 (≈ 123 µM) | 60 (≈ 164 µM) | 83 | 80 (≈ 218 µM) | – | – | – | – | – | – | – | – | – | –
COc1ccc2oc(NC3CCN(Cc4ccccc4)CC3)cc(=O)c2c1 | 10 (≈ 27.4 µM) | 10 (≈ 27.4 µM) | 15 (≈ 41.2 µM) | 15 (≈ 41.2 µM) | 10 | 10 (≈ 27.4 µM) | 10 (≈ 27.4 µM) | 10 (≈ 27.4 µM) | 15 | 10 (≈ 27.4 µM) | 2 | 2 | 2 | 2 | 2 | 2 | 2 | 2 | – | –
CCN1CCN(c2cc(=O)c3cc(OC)ccc3o2)CC1 | 70 (≈ 243 µM) | 60 (≈ 208 µM) | 70 (≈ 243 µM) | 75 (≈ 260 µM) | 30 | – | 80 (≈ 277 µM) | 90 (≈ 312 µM) | 40 | – | – | – | – | – | – | – | – | – | – | –
COc1ccc(N2CCN(Cc3cc(=O)c4c(OC)cc(OC)cc4o3)CC2)cc1 | 75 (≈ 183 µM) | 80 (≈ 195 µM) | 85 (≈ 207 µM) | 95 (≈ 231 µM) | 85 | 70 (≈ 171 µM) | 40 (≈ 97.4 µM) | 65 (≈ 158 µM) | 93 | 65 (≈ 158 µM) | – | – | – | – | – | – | – | – | – | –
C[C@@H]1C[C@H]2[C@@H]3CCC4=CC(=O)C=C[C@]4(C)[C@@]3(F)[C@@H](O)C[C@]2(C)[C@@]1(O)C(=O)CO [DEXAMETHASONE] | – | – | – | – | – | – | – | – | – | – | – | – | – | – | – | – | – | – | 84 | 71
COc1ccc2oc(N3CCN(C)CC3)cc(=O)c2c1 | – | 90 (≈ 328 µM) | – | 90 (≈ 328 µM) | 25 | 40 (≈ 146 µM) | 45 (≈ 164 µM) | 50 (≈ 182 µM) | 35 | 65 (≈ 237 µM) | – | – | – | – | – | – | – | – | – | –
COc1cc(OC)c2c(=O)cc(CN3CCN(c4ncccn4)CC3)oc2c1 | 65 (≈ 170 µM) | 75 (≈ 196 µM) | 95 (≈ 248 µM) | 90 (≈ 235 µM) | 87 | 90 (≈ 235 µM) | – | – | 93 | 90 (≈ 235 µM) | – | – | – | – | – | – | – | – | – | –
COc1cc(OC)c2c(=O)cc(CN3CCN(C/C=C/c4ccccc4)CC3)oc2c1 | – | – | – | 90 (≈ 214 µM) | 10 | 15 (≈ 35.7 µM) | 10 (≈ 23.8 µM) | 20 (≈ 47.6 µM) | 25 | 10 (≈ 23.8 µM) | 2 | 2 | 2 | 2 | 2 | 2 | 2 | 2 | – | –
O=C(O)c1cn(C2CC2)c2cc(N3CCNCC3)c(F)cc2c1=O [CIPROFLOXACIN] | – | – | – | – | – | 15 (≈ 45.3 µM) | 25 (≈ 75.4 µM) | – | – | 25 (≈ 75.4 µM) | – | – | – | – | – | – | – | – | – | –
COc1ccc2oc(N3CCN(Cc4ccccc4)CC3)cc(=O)c2c1 | 45 (≈ 128 µM) | 30 (≈ 85.6 µM) | 65 (≈ 185 µM) | 55 (≈ 157 µM) | 0 | 65 (≈ 185 µM) | 55 (≈ 157 µM) | 70 (≈ 200 µM) | 0 | 65 (≈ 185 µM) | – | – | – | – | – | – | – | – | – | –
COc1ccc2oc(N3CCN(c4ccccc4)CC3)cc(=O)c2c1 | 80 (≈ 238 µM) | 85 (≈ 253 µM) | 95 (≈ 282 µM) | 90 (≈ 268 µM) | 45 | 80 (≈ 238 µM) | 50 (≈ 149 µM) | 75 (≈ 223 µM) | 60 | 80 (≈ 238 µM) | – | – | – | – | – | – | – | – | – | –
COc1ccc2oc(N3CCN(c4ccccc4)CC3C#N)cc(=O)c2c1 (stereo unspecified) | 15 (≈ 41.5 µM) | 10 (≈ 27.7 µM) | 30 (≈ 83 µM) | 15 (≈ 41.5 µM) | 10 | 45 (≈ 125 µM) | 30 (≈ 83 µM) | 40 (≈ 111 µM) | 0 | 50 (≈ 138 µM) | 2 | 2 | 2 | 2 | 2 | 2 | 2 | 2 | – | –
COc1ccc2oc(N3CCOCC3)cc(=O)c2c1 | – | 90 (≈ 344 µM) | – | – | 80 | 90 (≈ 344 µM) | 75 (≈ 287 µM) | 95 (≈ 364 µM) | 84 | 90 (≈ 344 µM) | – | – | – | – | – | – | – | – | – | –
COc1cc(OC)c2c(=O)cc(CNC3CCN(Cc4ccccc4)CC3)oc2c1 | 15 (≈ 36.7 µM) | 10 (≈ 24.5 µM) | 10 (≈ 24.5 µM) | 10 (≈ 24.5 µM) | 20 | 10 (≈ 24.5 µM) | 10 (≈ 24.5 µM) | 10 (≈ 24.5 µM) | 35 | 15 (≈ 36.7 µM) | 2 | 2 | 2 | 2 | 2 | 2 | 2 | 2 | – | –
COc1cc(OC)c2c(=O)cc(CN3CCN(C(C)=O)CC3)oc2c1 | 85 (≈ 245 µM) | 60 (≈ 173 µM) | 90 (≈ 260 µM) | 75 (≈ 217 µM) | 0 | 95 (≈ 274 µM) | 60 (≈ 173 µM) | 80 (≈ 231 µM) | 0 | 90 (≈ 260 µM) | – | – | – | – | – | – | – | – | – | –
COc1cc(OC)c2c(=O)cc(CN3CCN(C)CC3)oc2c1 | 75 (≈ 236 µM) | 55 (≈ 173 µM) | 75 (≈ 236 µM) | 70 (≈ 220 µM) | 10 | 90 (≈ 283 µM) | 45 (≈ 141 µM) | 60 (≈ 188 µM) | 0 | 90 (≈ 283 µM) | – | – | – | – | – | – | – | – | – | –
